Reference: PubChem BioAssay (NCI)
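Cultured in 96-well plates, cells were exposed to test compound for 48 hours across five concentrations. At the GI50, growth is halved. TGI denotes the concentration required for complete inhibition of growth.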

Tests used:
Test in all cases: NCI-60 cell line screen, 48 h; in the data active means GI50 below about 0.43 µM; inactive means the rest
[1] = tested on: TK-10 renal
[2] = tested on: HOP-62 NSCLC
[3] = tested on: NCI/ADR-RES ovarian
[4] = tested on: SK-MEL-2 melanoma
[5] = tested on: BT-549 breast
[6] = tested on: A498 renal
[7] = tested on: ACHN renal
[8] = tested on: SK-OV-3 ovarian
[9] = tested on: SW-620 colon
[10] = tested on: NCI-H522 lung
[11] = tested on: OVCAR-3 ovarian
[12] = tested on: SF-295 CNS
[13] = tested on: U251 CNS
[14] = tested on: SK-MEL-28 melanoma
[15] = tested on: NCI-H460 lung
[16] = tested on: A549 NSCLC
[17] = tested on: T-47D breast
[18] = tested on: NCI-H226 lung
[19] = tested on: HCT-116 colon
[20] = tested on: SNB-19 CNS
[21] = tested on: SF-539 CNS
[22] = tested on: UACC-257 melanoma
[23] = tested on: SR leukemia
[24] = tested on: MCF7 breast
[25] = tested on: PC-3 prostate
[26] = tested on: SK-MEL-5 melanoma
[27] = tested on: UACC-62 melanoma
[28] = tested on: EKVX NSCLC
[29] = tested on: OVCAR-4 ovarian
[30] = tested on: OVCAR-8 ovarian
[31] = tested on: COLO 205 colon
[32] = tested on: UO-31 renal
[33] = tested on: MDA-MB-231 breast
[34] = tested on: MOLT-4 leukemia
[35] = tested on: SF-268 CNS
[36] = tested on: SNB-75 CNS
[37] = tested on: DU-145 prostate
[38] = tested on: CCRF-CEM leukemia
[39] = tested on: RXF 393 renal
[40] = tested on: HS 578T breast
[41] = tested on: RPMI-8226 leukemia
[42] = tested on: LOX IMVI melanoma
[43] = tested on: 786-0 renal
[44] = tested on: HT29 colon
[45] = tested on: M14 melanoma
[46] = tested on: MDA-MB-435
[47] = tested on: HOP-92 NSCLC
[48] = tested on: CAKI-1 renal
[49] = tested on: KM12 colon
[50] = tested on: NCI-H23 lung
[51] = tested on: HCC-2998 colon
[52] = tested on: MALME-3M melanoma
[53] = tested on: IGROV1 ovarian
[54] = tested on: K-562 leukemia
[55] = tested on: HCT-15 colon
[56] = tested on: SN12C renal
[57] = tested on: HL-60(TB) leukemia
[58] = tested on: OVCAR-5 ovarian

Nc1nc(Br)nc2c1ncn2C1CC(O)C(CO)O1 (stereo not drawn)
8.56 µM: TGI [45]
> 69.4 µM: TGI [53]
active: GI50 [3] 0.384 µM | GI50 [30] 0.18 µM | GI50 [34] 0.408 µM | GI50 [38] 0.204 µM | GI50 [57] 0.0835 µM
> 29.9 µM: TGI [48]
> 22.4 µM: TGI [23]
> 76.4 µM: TGI [12]
99.4 µM: TGI [6]
inactive: GI50 [1] > 100 µM | GI50 [2] 4.68 µM | GI50 [4] > 100 µM | GI50 [5] 3.52 µM | GI50 [6] 21 µM | GI50 [7] 3.7 µM | GI50 [8] > 100 µM | GI50 [9] 16.5 µM | GI50 [10] 0.698 µM | GI50 [11] > 100 µM | GI50 [12] 18.4 µM | GI50 [13] 11.4 µM | GI50 [14] > 100 µM | GI50 [15] 61 µM | GI50 [16] 5.34 µM | GI50 [17] > 60.7 µM | GI50 [18] 25.2 µM | GI50 [19] 2.76 µM | GI50 [21] 27.4 µM | GI50 [22] 27.3 µM | GI50 [23] 3.13 µM | GI50 [24] 1.26 µM | GI50 [25] > 20.1 µM | GI50 [26] 29.3 µM | GI50 [27] 2.4 µM | GI50 [28] > 100 µM | GI50 [29] > 100 µM | GI50 [31] 13.7 µM | GI50 [32] 1.3 µM | GI50 [33] > 71.2 µM | GI50 [35] 99.8 µM | GI50 [36] > 100 µM | GI50 [37] 44.3 µM | GI50 [39] 32.8 µM | GI50 [40] > 93.3 µM | GI50 [41] > 25 µM | GI50 [42] 29.8 µM | GI50 [43] 34.2 µM | GI50 [44] 47.7 µM | GI50 [45] 1.1 µM | GI50 [46] 11.6 µM | GI50 [47] 2.79 µM | GI50 [48] 2.88 µM | GI50 [49] > 100 µM | GI50 [50] 1.08 µM | GI50 [51] 4.55 µM | GI50 [52] > 100 µM | GI50 [54] > 24 µM | GI50 [55] > 63.9 µM | GI50 [56] 0.744 µM | GI50 [58] 90.8 µM
> 56.9 µM: TGI [20]
> 100 µM: TGI [1] | TGI [2] | TGI [3] | TGI [4] | TGI [5] | TGI [7] | TGI [8] | TGI [9] | TGI [10] | TGI [11] | TGI [13] | TGI [14] | TGI [15] | TGI [16] | TGI [17] | TGI [18] | TGI [19] | TGI [21] | TGI [22] | TGI [24] | TGI [25] | TGI [26] | TGI [27] | TGI [28] | TGI [29] | TGI [30] | TGI [31] | TGI [32] | TGI [33] | TGI [34] | TGI [35] | TGI [36] | TGI [37] | TGI [38] | TGI [39] | TGI [40] | TGI [41] | TGI [42] | TGI [43] | TGI [44] | TGI [46] | TGI [47] | TGI [49] | TGI [50] | TGI [51] | TGI [52] | TGI [54] | TGI [55] | TGI [56] | TGI [58]
